Assay results reported in US5350866A, “10-desacetoxytaxol derivatives” (Bristol-Myers Squibb Company, priority 1992, dated 1994).

How the values were obtained:
[1] = system: HCT-116 human colon carcinoma cells; experiment: In vitro cytotoxicity (XTT assay), HCT-116; conditions: HCT-116, 72 h, read-out: IC50 HCT-116
[2] = system: HCT-116/VM46 human colon carcinoma cells; experiment: In vitro cytotoxicity (XTT assay), teniposide-resistant, multidrug resistance phenotype HCT-116/VM46

Row | SMILES | IC50 [1] | IC50 ([2]; Homo sapiens, HCT-116/VM46, 72 h, read-out: IC50 HCT-116/VM46) | fold resistance relative to HCT116 cells ([2]; value in parenthesis, HCT-116/VM46 relative to HCT116 cells, 4320 min)
1 | CC(=O)O[C@@]12CO[C@@H]1C[C@H](O)[C@@]1(C)C(=O)CC3=C(C)[C@@H](OC(=O)[C@H](O)[C@@H](NC(=O)c4ccccc4)c4ccccc4)C[C@@](O)([C@@H](OC(=O)c4ccccc4)[C@H]21)C3(C)C [10-Desacetoxytaxol] | 8 nM |  | 
2 | CC(=O)O[C@H]1C(=O)[C@@]2(C)[C@H]([C@H](OC(=O)c3ccccc3)[C@]3(O)C[C@H](OC(=O)[C@H](O)[C@@H](NC(=O)c4ccccc4)c4ccccc4)C(C)=C1C3(C)C)[C@]1(OC(C)=O)CO[C@@H]1C[C@@H]2O [Taxol] | 4 nM | 440 nM | 124
